Assay results: patent US6399298B1, “Ku70—related methods” (Sloan-Kettering Institute for Cancer Research, priority 1998, dated 2002)

Legend:
[1] = system: cells derived from Ku70 knock-out mice; assay: Survival experiments with cells derived from Ku70 knock-out mice; format: cell-based; details: Ku70 knock-out mouse cells, FIG. 12
[2] = system: cells derived from Ku80 knock-out mice; assay: Survival experiments with cells derived from Ku80 knock-out mice; format: cell-based; details: Ku80 knock-out mouse cells, FIG. 12
[3] = system: HeLa cells expressing antisense Ku70; assay: Cytotoxicity in stable HeLa cells expressing antisense Ku70 RNA (Tet-Off); format: cell-based, human; details: adriamycin 1 μg/ml; expression of Ku70 antisense RNA; FIG. 13
Procedure: Effect of (A) radiation, and (B) adriamycin on different cell types. O=HeLa controls cells; ▪=HeLa cells expressing antisense Ku70; ▴=HeLa cell expressing antisense Ku80.
Stable HeLa cells, containing human Ku70 cDNA or human Ku80 cDNA, in the antisense orientation, under the regulation of the Tet-Off™ expression system (Clonetech), were established. Upon induction of the expression system these cells should produce antisense Ku70 or Ku80 RNA, respectively. Experiments were performed showing (FIG. 13) that expression of either Ku70 or Ku80 antisense RNA increased the cytotoxic effect adriamycin by 3-5 fold at 1 μg/ml and that expression of Ku70 antisense RNA increased the cytotoxic effect of γ-radiation approximately 5 fold (at 6 Gy).

[4] = system: HeLa cells expressing antisense Ku80; assay: Cytotoxicity in stable HeLa cells expressing antisense Ku80 RNA (Tet-Off); format: cell-based, human; details: adriamycin 1 μg/ml; expression of Ku80 antisense RNA; FIG. 13

Compound | sensitivity of cells to the agent (survival) [1] | sensitivity of cells to the agent (survival) [2] | increase of the cytotoxic effect of adriamycin [3] | increase of the cytotoxic effect of adriamycin [4]
COc1cccc2c1C(=O)c1c(O)c3c(c(O)c1C2=O)C[C@@](O)(C(=O)CO)C[C@@H]3O[C@H]1C[C@H](N)[C@H](O)[C@H](C)O1 [adriamycin] | very sensitive | very sensitive | 3-5 fold | 3-5 fold
bleomycin | very sensitive | very sensitive | – | –
